Results on three compounds are retold here after patent publication US4876284A, “1-alkyl-2-aminotetralin derivatives” (Per Arvid Emil Carlsson, priority 1981, dated 1989).

For assay [1] the following is noted: in vivo; cited from earlier work.
The test system of assay [2] is central DA-receptor (pre- and/or postsynaptic). Conditions: reserpine-pretreated rats, s.c., cited from earlier work; for Dopa-accumulation; ED50, Limbic (taken from Hacksell et al., J. Med. Chem. 22, 1469 (1979)): limbic forebrain.
In assay [3] the test system is postsynaptic DA receptors. Nature of the assay: Antagonism of the reserpine plus α-methyl-para-tyrosine-induced immobility (neuroleptic syndrome) in rats; motor activity. To be noted: for Motor activity: reserpine 10 mg/kg + α-methyl-para-tyrosine 250 mg/kg i.p., means ± s.e.m.; for motor response / postsynaptic DA-receptor stimulatory effects: comparative study, Table II, s.c.

The test system of assay [4] is DA autoreceptors. The assay is described as follows: Spontaneous locomotor activity in non-pretreated rats. The class given is in vivo, rat. To be noted: non-pretreated rats; for effect on locomotor activity, in words: s.c. As for the experimental part:
Untreated animals exposed to a new environment display an initial high motor activity which then gradually declines over a period of time. Administration of DA-receptor agonists (e.g. apomorphine) in doses where preferential autoreceptor stimulation is likely to occur, causes a depression of the spontaneous motility mentioned above, considered to be due to the DA autoreceptor-medicated attenuation of central DA transmission.
Rats (150-300 g) were injected subcutaneously with compound 2,5-OH-DPAT or apomorphine and after 5 minutes they were individually placed in motility boxes ("M/P 40 Fc Electronic Motility Meter". Motron Products, Stockholm) and the motor activity (0-30 min) was quantified. […] These findings are in congruence with the results obtained with the selective DA-autoreceptor agonist 3-PPP [S. Hjorth t al., Life Sciences, 28, 1225 (1981)] but in sharp contrast to the results obtained with 5-OH-DPAT and apomorphine (Table III).
Non-pretreated rats were given compound -2 (0.0625-16.0 mg/kg),
5OH--2-(di-n-propylamino) tetralin (5OH--DPAT; 0.0125-0.05 mg/kg,
apomorphine (0.1-1.0 mg/kg) or saline subcutaneously. Five minutes later
they were placed individually into motility meters and the locomotor

Assay [5] has as its system autoreceptor. To be noted: low doses; cited from earlier work.
Setting [6] is: reserpine and α-methyl-para-tyrosine pretreated rats.

In the case of `CN(C)C1CCc2ccc(O)cc2C1(C)C` (stereo not shown) [1,1-Dimethyl-2-(N,N-dimethylamino)-7-hydroxytetralin], the “actions stated in CA 79: 146294b” value in assay [1] is “analgesic and intestinal movement accelerating actions”.

As to `CCCN(CCC)C1CCc2c(O)cccc2C1` (stereo not shown) [Compound 5-OHDPAT, 5-hydroxy-2-(di-n-propylamino)tetralin], in assay [2], the “Dopa-accumulation; ED50, Limbic (taken from Hacksell et al., J. Med. Chem. 22, 1469 (1979))” value was 0.111 μmol/kg s.c and the “Dopa-accumulation; ED50, Striatum (taken from Hacksell et al., J. Med. Chem. 22, 1469 (1979))” value is 0.009 μmol/kg s.c. Further, in assay [3] (0.75 mg/kg s.c.), the Motor activity turned out to be 620 ± 20 counts 0-60 min. In addition, in assay [3], the “motor response / postsynaptic DA-receptor stimulatory effects” value is “strong central postsynaptic DA-receptor stimulatory effects”. In addition, in assay [3] (setting [6]), the “antagonism of the reserpine-induced syndrome / behaviour elicited” value was “pronounced stereotyped and hyperactive behaviour”; the “postsynaptic DA-receptor stimulation” value was “efficient postsynaptic DA-receptor stimulants”. Moreover, in assay [4] (0.0125 mg/kg s.c.), the Locomotor activity is reported as 84 ± 11 counts 0.30 min. Also, the Locomotor activity in assay [4] (0.05 mg/kg s.c.) was 380 ± 24 counts 0.30 min. Further, in assay [4], the “effect on locomotor activity, in words” value is “lower doses significantly suppressing and higher dosess significantly stimulating the rat locomotor activity”.

With `CN1CCc2cccc3c2[C@H]1Cc1ccc(O)c(O)c1-3` [Apomorphine], in assay [2], the “Dopa-accumulation; ED50, Limbic (taken from Hacksell et al., J. Med. Chem. 22, 1469 (1979))” value is reported as 0.19 μmol/kg s.c and the “Dopa-accumulation; ED50, Striatum (taken from Hacksell et al., J. Med. Chem. 22, 1469 (1979))” value is listed as 0.22 μmol/kg s.c. For the same compound, in assay [3] (1 mg/kg s.c.), the Motor activity was 517 ± 56 counts 0-60 min. The “motor response / postsynaptic DA-receptor stimulatory effects” value in assay [3] is reported as “strong central postsynaptic DA-receptor stimulatory effects”. Besides, the “antagonism of the reserpine-induced syndrome / behaviour elicited” value in assay [3] (setting [6]) is “pronounced stereotyped and hyperactive behaviour”. Also, the Locomotor activity in assay [4] (0.1 mg/kg s.c.) is given as 134 ± 9 counts 0.30 min. Moreover, in assay [4] (1.0 mg/kg s.c.), the Locomotor activity came to 439 ± 67 counts 0.30 min. Moreover, the “effect on locomotor activity, in words” value in assay [4] is “lower doses significantly suppressing and higher dosess significantly stimulating the rat locomotor activity”. For the same compound, the “effects demonstrated in man” value in assay [5] is “"paradoxical" antipsychotic and antidyskinetic effects”.
